PMC7829778, “Optimization of 1,4-Naphthoquinone Hit Compound: A Computational, Phenotypic, and In Vivo Screening against Trypanosoma cruzi” (Molecules, 2021)
Read-outs that look alike come from different tables or passages of the source.

Tests used:
T. cruzi = test system: T. cruzi; set-up: method as in PMID 18788881; conditions: C3H/HeN female infected mice, cited from earlier work
[1] = test system: T. cruzi trypomastigotes Dm28c-Luc; assay: Trypanocidal activity against trypomastigotes, Dm28c-Luc clone (luciferase); type: cell-based, Trypanosoma cruzi; conditions: 24 h, mean ± SD of three experiments; for IC90: read-out: Trypanocidal Effect Trypomastigotes Dm28c-Luc IC90; for IC50: read-out: Trypanocidal Effect Trypomastigotes Dm28c-Luc IC50
Procedure: (§1) T. cruzi Dm28c-Luc clone, genetically modified to express firefly luciferase, and Y strain were used in the drug screening assay. Vero cells were infected with T. cruzi, Dm28c-Luc or Y strain, in a 10:1 parasites/host cell ratio and maintained at 37 °C in humidified atmosphere of 5% CO2. Trypomastigotes were harvested from the infected culture supernatant on the 4th day post-infection (dpi) followed by quantification of the number of parasites/mL in Neubauer chamber.
(§2) Screening of the compounds was performed against trypomastigotes and intracellular amastigote forms. Trypomastigotes (1 × 10^6 parasites/well), Dm28c-Luc clone and Y strain, were incubated for 24 h at 37 °C with the 1,4 naphthoquinone derivatives and Bz (0.41–100 μM) and their viability determined by the activity of the luciferase enzyme, after addition of luciferin substrate (300 μg/mL), or CellTiter Glo. The luminescent signal was detected on the FlexStation 3 reader.

[2] = test system: T. cruzi trypomastigotes Y strain; assay: Trypanocidal activity against trypomastigotes, Y strain (CellTiter Glo); type: cell-based; conditions: Trypanosoma cruzi, 24 h
Procedure: as §1, §2

[3] = Cytotoxicity in vitro assay (CellTiter Glo, ATP level); type: cell-based; conditions: African green monkey, Vero cells
Procedure: The cultures were maintained at 37 °C in humidified atmosphere of 5% CO2.
To evaluate the toxic effects of the 1,4-naphthoquinone derivatives on mammalian cells, Vero cells were seeded at a density of 1.5 × 10^4 cells/well in 96-well white culture plates. Twenty-four hours later, the cell cultures were incubated for 72 h at 37 °C with 1,4-naphthoquinone derivatives (series 1(a–i) and 2(a–j)) and Bz (500–1.9 µM) diluted in RPMI medium supplemented with 10% FBS. After incubation, the cell viability, measured by ATP level, was assessed by adding 20 µL/well of the CellTiter Glo (Promega Corporation, Madison, WI, EUA) solution. The luminescent signal was read on the FlexStation 3 reader (Molecular Devices, Sunnyvale, CA, USA). […] All treatments and controls were performed at low concentration (≤1%) of dimethyl sulfoxide (DMSO). At least three independent assays were performed in duplicate.

[4] = test system: intracellular amastigotes of T. cruzi (Dm28c-Luc clone); assay: Luminescent screening against intracellular amastigotes in infected Vero cells; type: cell-based, Trypanosoma cruzi; conditions: infected Vero cells treated for 72 h, mean ± SD of three experiments
Procedure: as §1
The effect of the compounds against intracellular amastigotes was screened in 72 h T. cruzi-infected Vero cells. Briefly, Vero cells seeded (1.5 × 10^4 cells/well) on 96-well white plate infected with trypomastigotes (Dm28c-Luc) at a 10:1 multiplicity of parasites/cell. After 24 h of infection, the cultures were washed with PBS and then, treated for 72 h at 37 °C with naphthoquinone derivatives and Bz (0.41–100 µM). After treatment, luciferin (300 µg/mL) was added to the culture and the viability of the parasites was assessed by reading the luminescent signal using the FlexStation 3 reader. Controls were also performed in no-toxic concentrations of DMSO (≤1%).

[5] = Mouse acute toxicity (NOAEL); type: in vivo
Procedure: Treated animals were separated into two groups: (1) 5 consecutive doses of 50 mg/kg and (2) 100 mg/kg every 1h, totaling a cumulative dose of 250 mg/kg and 500 mg/kg, respectively. Untreated and vehicle treated animals (PBS with 3% Tween-80) were used as control groups. Mice were inspected for toxic and sub-toxic symptoms according to Organization for Economic Co-operation and Development (OECD) guidelines [46].

T. cruzi Y strain = assay: Murine model of T. cruzi acute infection; type: in vivo, Trypanosoma cruzi
Procedure: Male Swiss Webster mice (18 g) were obtained from the Institute of Science and Technology in Bio-models of the Oswaldo Cruz Foundation, Rio de Janeiro, Brazil. […] The animals received water and an ad libitum feeding regimen. Mice were intraperitoneally (i.p.) infected with bloodstream trypomastigotes of T. cruzi Y strain (10^4 parasites/animal) and parasitemia was daily evaluated from the 4th dpi. […] Daily treatment (0.1 mL i.p. dose) started at 5 days post-infection (dpi) with positive parasitemia and followed up to 10 dpi.
Parasitemia was estimated by Pizzy-Brener method [47]. Briefly, animals parasitemia were determined by microscopic quantification of fresh blood (5 µL) collected from animals’ caudal vein. Mortality was daily evaluated up to 26 days and expressed in survival rates.

[6] = read-out: Trypanocidal Effect Trypomastigotes Y Strain IC90, trypomastigotes, 24 h, mean ± SD of three experiments
[7] = trypomastigotes, mean ± SD of three experiments, read-out: Trypanocidal Effect Trypomastigotes Y Strain IC50
[8] = trypomastigotes, mean ± SD of three experiments, read-out: Trypanocidal Effect Trypomastigotes Y Strain IC90
[9] = Table 1, mean ± SD, read-out: Vero Cells Toxicity CC50

O=C1C(c2ccccc2)=C(c2ccccc2)C(=O)c2ccccc21 [DPNQ, 2,3-diphenyl-1,4-naphthoquinone]
animal survival (T. cruzi; up to 70 dpi): 60% | parasite load (T. cruzi): reduced two-fold the parasite load

COc1ccc(C(Sc2ccc(Cl)cc2)C2=C(O)C(=O)c3ccccc3C2=O)cc1 (centres unmarked) [Compound 1g, 2-(((4-chlorophenyl)thio)(4-methoxyphenyl)methyl)-3-hydroxynaphthalene-1,4-dione]
IC90 [1]: 19.3 ± 3.4 µM | IC50 ([1]; Trypanosoma cruzi): 8.1 ± 0.6 µM | IC90 ([1]; Trypanosoma cruzi): ≤ 19.3 µM | IC90 [2, 6]: ≤ 19.3 µM | IC50 [2, 7]: 10.2 ± 0.5 µM | IC90 [2, 8]: 16.8 ± 2.5 µM | CC50 at 72 h [3, 9]: 99.9 ± 12.5 µM | CC50 at 72 h ([3]; Table 2, read-out: CC50 Vero): 99.5 ± 12.5 µM | IC50 ([4]; Trypanosoma cruzi, Vero, 72 h): ≤ 6.9 µM | IC90 ([4]; Trypanosoma cruzi): 11.4 ± 2.1 µM | IC50 [4]: 6.7 ± 1.8 µM | death in acute toxicity assessment ([5]; intraperitoneal, cumulative dose of 500 mg/kg (5 x 100 mg/kg), n = 2): one animal died | changes in mouse behavioral characteristics ([5]; oral and i.p. cumulative doses, acute toxicity assessment): not observed | toxic side effects according to the OECD guidelines ([5]; oral and i.p., five doses of 50 mg/kg 1 h apart, total cumulative dose 250 mg/kg, up to 48 h post-treatment): No toxic side effects | parasitemia / parasitic load (T. cruzi Y strain; Swiss Webster male mice, 10^4 Y strain trypomastigotes, i.p. treatment 5 consecutive days from 5 dpi, C2 50 and 100 mg/kg/day, 1g 50 mg/kg/day): not efficient in eliminating the parasites | prevention of mortality / survival (T. cruzi Y strain; Swiss Webster male mice, Y strain, i.p. treatment from 5 dpi, C2 50 and 100 mg/kg/day, 1g 50 mg/kg/day): not able to prevent mortality

O=C(Cn1ccnc1[N+](=O)[O-])NCc1ccccc1 [Bz, benznidazole, reference compound]
IC50 ([1]; Trypanosoma cruzi): 17.5 ± 3.3 µM | IC90 ([1]; Trypanosoma cruzi): > 100 µM | IC50 ([2]; read-out: Trypanocidal Effect Trypomastigotes Y Strain IC50, trypomastigotes, 24 h, mean ± SD of three experiments): 14.3 ± 3.2 µM | IC90 [2, 6]: > 100 µM | CC50 at 72 h [3, 9]: > 500 µM | CC50 at 72 h ([3]; Table 2, read-out: CC50 Vero): > 500 µM | IC50 ([4]; Trypanosoma cruzi): 1.4 ± 0.4 µM | IC90 ([4]; Trypanosoma cruzi): 7.9 ± 1.2 µM | parasitemia by microscopic analysis (T. cruzi Y strain; infected mice treated orally with Bz 100 mg/kg/day): undetectable parasitemia | survival (T. cruzi Y strain; infected mice treated orally with Bz 100 mg/kg/day, 26 days): survived during all period analyzed

O=C1C(O)=C(C(Sc2ccc(Cl)cc2)c2ccc(Cl)cc2)C(=O)c2ccccc21 (centres unmarked) [Compound 1a, 2-((4-chlorophenyl)((4-chlorophenyl)thio)methyl)-3-hydroxynaphthalene-1,4-dione]
IC50 ([1]; Trypanosoma cruzi): 8.9 ± 0.6 µM | IC90 ([1]; Trypanosoma cruzi): 25.1 ± 1.6 µM | IC50 [2, 7]: 3.1 ± 0.6 µM | IC90 [2, 8]: 5.8 ± 0.9 µM | CC50 at 72 h [3, 9]: 43.6 ± 2.3 µM | CC50 at 72 h ([3]; Table 2, read-out: CC50 Vero): 43.6 ± 2.3 µM | IC50 ([4]; Trypanosoma cruzi, Vero, 72 h): ≤ 6.9 µM | IC90 ([4]; Trypanosoma cruzi): 12.1 ± 1.3 µM | IC50 [4]: 6.2 ± 0.9 µM | melting point: 135 to 136 °C
